The source of these data is ChEMBL document CHEMBL2434923, “Synthesis of quinoidal molecules: strategies towards bioactive compounds with an emphasis on lapachones” (Eur J Med Chem, 2013).

The test system of assay [1] is Trypanosoma cruzi. Nature of the assay: Antitrypanosomal activity against Trypanosoma cruzi. In kind it is functional, organism-based.
In assay [2] the test system is Trypanosoma cruzi. Nature of the assay: Antitrypanosomal activity against Trypanosoma cruzi after 24 hrs. The assay is classed as functional, organism-based.
A further assay has as its system KB. The assay is described as follows: Cytotoxicity against human KB cells. The assay is classed as functional, cell-based.
A further assay concerns HeLa. The assay is described as follows: Cytotoxicity against human HeLa cells. In kind it is functional, cell-based.
The nature of assay [3]: Cytotoxicity against human HepG cells. The assay is classed as functional, cell-based.

For `CC1(C)CCc2c(c3ccccc3c3nc(-c4c[nH]c5ccccc45)[nH]c23)O1`, in the assay on Trypanosoma cruzi [1], the IC50 (commonly the concentration at which inhibition is half-maximal) stood at 15400 nM.

In turn, `CC1(C)CCc2c(c3ccccc3c3nc(-c4ccccc4)[nH]c23)O1` showed a 50% inhibitory concentration (IC50) in the assay on Trypanosoma cruzi [1] of 39400 nM.

In turn, `CC1(C)CCc2c(c3ccccc3c3ncoc23)O1` returned a half-inhibitory concentration (IC50) with Trypanosoma cruzi [2] of 325000 nM.

`CC1(C)CCc2c(c3ccccc3c3nc(-c4ccccc4)oc23)O1` returned an IC50 in the assay on Trypanosoma cruzi [2] of 284000 nM.

The molecule `Cc1ccc(-c2nc3c([nH]2)c2c(c4ccccc43)OC(C)(C)CC2)cc1` yielded a 50% inhibitory concentration (IC50) with Trypanosoma cruzi [1] of 15500 nM.

Turning to `O=C1C(=O)c2ccccc2C2=C1CCCO2`, the IC50 (with KB; in the assay on HeLa; in assay [3]) was 920 nM throughout.

Turning to `O=C1C(=O)c2ccccc2C2=C1CCO2`, the IC50 (in the assay on KB; in the assay on HeLa; in assay [3]) was 920 nM in each case.
